The values below come from US11707444B2, “Antiviral composition for SARS-CoV-2 containing cannabinoids as active ingredient” (priority 2020, dated 2023).

In one data set the test system is SARS-CoV-2. The data set is described as follows: microbe, parasite or virus in culture. The class given is cell-based, SARS-CoV-2 (βCoV/KOR/KCDC03/2020).
The target of another data set is CBR2 (Homo sapiens, UniProt P34972). The settings on record: reported (Pertwee 2008); cited from earlier work.
A further data set concerns Vero cells. Nature of the data set: Vero cell viability in the dose-response curve assay. The class given is cell-based. Here is the method: Dose-response curve (DRC) analysis was performed according to a conventionally known method (Jeon, S., Ko, M., Lee, J., Choi, I., Byun, S Y, Park, S., Shum, D., and Kim, S. (2020). Identification of antiviral drug candidates against SARS-CoV-2 from FDA-approved drugs. Antimicrobial Agents and Chemotherapy). Briefly, the Vero cells were seeded at 1.2×10^4 cells per well in DMEM containing 1× Antibiotic-Antimycotic solution (Gibco) and 2% FBS in a 384-well, μClear plate (Greiner Bio-One) and maintained for 24 h. After that, the cells were treated twice with compounds in the concentration range of 0.05-100 μM. A 9-point dose-response curve (DRC) was generated. For viral infection, the plate was transferred to a BSL-3 isolation facility and SARS-CoV-2 was added to an MOI value of 0.0125. Next, the cells were fixed at 24 hpi with 4% PFA and measured using the immunofluorescence method Operetta (Perkin Elmer).
Images acquired using software within the Pasteur Institute in Korea were used to estimate the infection rate and cell number, and antiviral activity was normalized to negative (0.5% DMSO) and positive controls (mock). The dose-response curve (DRC) was measured using the sigmoidal dose-response model Y=Bottom+(Top−Bottom)/(1+(IC50/X)^Hillslope) using Prism or 7XLfit 4 software. Finally, IC50 values were measured for curves fitted to the normalized activity data set. […]

For data set [1] the following is noted: 0.3 mg/kg/day, report; cited from earlier work.
The conditions of data set [2]: cited from earlier work.
For data set [3] the following is noted: 100 mg of CBD, healthy volunteers, reported; cited from earlier work.
The mark [4] stands for this setting: Severe acute respiratory syndrome coronavirus 2, Vero; read-out: IC50, antiviral activity against SARS-CoV-2.

Like-named read-outs stand apart in the source and are kept apart here.

Sequence of CBR2 (P34972 whole entry): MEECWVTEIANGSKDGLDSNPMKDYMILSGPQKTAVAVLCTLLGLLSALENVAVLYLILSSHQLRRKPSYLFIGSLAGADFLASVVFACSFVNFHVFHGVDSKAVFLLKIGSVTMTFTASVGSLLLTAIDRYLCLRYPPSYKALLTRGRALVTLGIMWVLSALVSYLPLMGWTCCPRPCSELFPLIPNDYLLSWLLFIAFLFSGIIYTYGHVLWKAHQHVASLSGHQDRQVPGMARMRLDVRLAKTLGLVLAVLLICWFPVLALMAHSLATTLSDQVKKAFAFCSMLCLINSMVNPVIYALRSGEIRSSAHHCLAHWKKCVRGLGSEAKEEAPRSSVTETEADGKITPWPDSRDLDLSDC

As to `CCCCCc1cc2c(c(O)c1C(=O)O)[C@@H]1C=C(C)CC[C@H]1C(C)(C)O2` [Compound T3, Δ9-Tetrahydrocannabinolic acid], the IC50 with SARS-CoV-2 (setting [4]) was 13.2 µM. With `CCCCCc1cc(O)c2c(c1)OC(C)(C)[C@@H]1CCC(C)=C[C@@H]21` [Compound T4, Δ^9-Tetrahydrocannabinol], the IC50 in the data set on SARS-CoV-2 (setting [4]) amounted to 10.2 µM. Besides, the “action at CBR2” value on CBR2 is reported as “partial agonist”.

For `CCCCCc1cc(O)c2c(c1)OC(C)(C)c1ccc(C)cc1-2` [Compound T7, Cannabinol], in the data set with SARS-CoV-2 (setting [4]), the IC50 amounted to 11.1 µM.

Consider `C=C(C)[C@@H]1CCC(C)=C[C@H]1c1c(O)cc(CCCCC)cc1O` [Compound T22, Cannabidiol], for which the IC50 with SARS-CoV-2 (setting [4]) was 7.91 µM. Also, the inhibition at 12.5 µM in the data set on SARS-CoV-2 (Severe acute respiratory syndrome coronavirus 2; at 12.50 μM, Vero cells) was determined as 99.2%. In the data set with Vero cells (at 12.50 μM), this compound gave a Vero cell viability of 97.46%. Besides, the host cell viability result with Vero cells (at 50 μM) was “decreased sharply”. For the same compound, the “effect in Crohn's disease” value in data set [1] is given as “effective”. The “dose reported to be safe” value in data set [2] was “up to 60 mg per day”. For the same compound, in data set [3], the safety and tolerability result was “safe and tolerable”. As to `C=C(C)[C@@H]1CCC(C)=C[C@H]1c1c(O)cc(CCCCC)c(C(=O)O)c1O` [Compound T23, Cannabidiolic acid], in the data set on SARS-CoV-2 (setting [4]), the IC50 worked out at 37.6 µM. Same read-out and setting: as for `CCN(CC)CCCC(C)Nc1ccnc2cc(Cl)ccc12` (stereo not drawn) [chloroquine, reference compound], the figure is 8.17 µM; as for `Cc1cccc(C)c1OCC(=O)N[C@@H](Cc1ccccc1)[C@@H](O)C[C@H](Cc1ccccc1)NC(=O)[C@H](C(C)C)N1CCCNC1=O` [lopinavir, reference compound], 9.78 µM. As for `CCC(CC)COC(=O)[C@H](C)N[P@](=O)(OC[C@H]1O[C@@](C#N)(c2ccc3c(N)ncnn23)[C@H](O)[C@@H]1O)Oc1ccccc1` [remdesivir, reference compound], the IC50 in the data set with SARS-CoV-2 (Severe acute respiratory syndrome coronavirus 2, Vero, read-out: IC50, antiviral activity against SARS-CoV-2) amounted to 13.2 µM.
